Values quoted from earlier work as cited in PMC10772668 (Clinical and Translational Science, 2023).

Conditions: cited from earlier work

## CN1C(=O)[C@@H](NC(=O)c2nnc(Cc3ccccc3)[nH]2)COc2ccccc21 [GSK2982772]
Clinical development
  Safety and tolerability: safe and well‐tolerated
Healthy participants
  Tolerability and ALT abnormalities: well‐tolerated with no reports of ALT abnormalities
